Data as given in paper PMC10819565, “Effects of H2-Receptor Antagonists on the Exposure of Dacomitinib” (Pharmaceutics, 2024).
Converted amounts (≈) assume the structure as drawn. Like-named read-outs stand apart in the source and are kept apart here.

How the values were obtained:
[1] = parameters: method as in ref 26 = [26]; 26. US Food and Drug Administration (FDA) VIZIMPRO ® (Dacomitinib) Review Available online: https://www.accessdata.fda.gov/drugsatfda_docs/nda/2018/211288Orig1s000ChemR.pdf (accessed on 6 November 202); conditions: cited from earlier work
[2] = Disposition PK parameters fitted to intravenous data from the absolute bioavailability study in healthy volunteers; type: in vivo, human; conditions: automatic estimation using PK Plus based on IV data from clinical study
From the text: (§1) PBPK modeling was used to evaluate the effect of changes in gastric pH on dacomitinib absorption. With physicochemical properties (e.g., Log P, pKa, mean precipitation time) and solubility data at different pH for dacomitinib, a two-compartment model coupled to the ACAT model was built using Gastroplus^TM version 9.7 (Simulation Plus, Inc., Lancaster, CA, USA) with default fasted gut physiology. Disposition PK parameters for dacomitinib were derived by initially fitting the PK data after intravenous (IV) administration from a study where the absolute bioavailability of dacomitinib was estimated by comparing oral to intravenous administration of dacomitinib in healthy volunteers.

[3] = parameters: method as in ref 26 = [26]; 26. US Food and Drug Administration (FDA) VIZIMPRO ® (Dacomitinib) Review Available online: https://www.accessdata.fda.gov/drugsatfda_docs/nda/2018/211288Orig1s000ChemR.pdf (accessed on 6 November 202); conditions: cited from earlier work; remark: listed apart in the source
[4] = Oral absorption PBPK model (GastroPlus ACAT) simulations and gastric pH parameter sensitivity analysis; parameters: species or system human; conditions: 45 mg oral
From the text: as §1
The model that utilized the default physiological conditions of Gastroplus was used to simulate the plasma profiles for a 45 mg oral dose in healthy volunteers from the same study. […] The modified model was developed by optimizing the absorption scale factor (ASF) model based on the clinical PK data to reflect the prolonged Tmax of the plasma profile since all the systemic PK parameters were fixed after fitting the IV profile.
The model was validated using the mean plasma profiles of dacomitinib under 3 different conditions or treatments (fasted, fed, and PPI treatment using rabeprazole 40 mg administered QD for 7 days) following oral administration of a 45 mg dose in a clinical study in healthy volunteers to evaluate the food effect and effect of PPIs. In this study, PK samples were collected at the same nominal times of 0, 1, 2, 4, 6, 8, 12, 24, 48, 72, 96, 120, 144, 168, 192, 216 and 264 h post-dose. The mean plasma drug concentration–time profile of dacomitinib was obtained for each condition, namely fasted, fed and PPI treatment, and respective exposure parameters (Cmax and AUCinf) were derived from Gastroplus. The simulation was conducted using Gastroplus with the default physiological conditions of fasted or fed and by setting the gastric pH in the model to 6.0. This allowed for the simulation of the situations corresponding to fasted, fed and PPI treatment, respectively.
The gastric pH in the PBPK model was manipulated to enable the evaluation of a range of pH values from 1.0 to 6.0 during pharmacokinetic (PK) simulations. Parameter sensitivity analyses (PSAs) were performed on the PBPK model to assess the impact of pH variations from 1.0 to 5.0, which mimicked the effect of H2RAs on the absorption of dacomitinib.

[5] = healthy volunteers, cited from earlier work; for AUCinf Observed / Cmax Observed: 45 mg oral
[6] = Within-patient comparison of steady-state trough concentrations (Ctrough,ss) with and without concomitant H2RA, pooled data from 11 clinical studies; type: in vivo, human; conditions: for Ctrough,ss Geometric Mean (Geometric CV%), Test / Ctrough,ss Geometric Mean (Geometric CV%), Reference: patients, dose normalized to 45 mg QD; for Ctrough,ss Geometric Mean (Geometric CV%), Test: dacomitinib co-administered with H2RA (at least 3 days); for Ctrough,ss Geometric Mean (Geometric CV%), Reference: dacomitinib without H2RA
Procedure: This analysis included data from 11 clinical studies. Patients in these studies who received continuous oral dosing schedule of dacomitinib at dose levels of 45 mg once daily (QD), 30 mg QD, 15 mg QD and 60 mg QD, with a cycle duration of 28 days, are included in the analysis dataset. All trials were conducted in accordance with the International Council on Harmonization Good Clinical Practice guidelines and the provisions of the Declaration of Helsinki. The institutional review board or independent ethics committee at each participating center approved the protocol. All patients provided written informed consent before enrollment.
Patients in the 11 studies who received continuous oral dosing schedule of dacomitinib at dose levels of 45 mg once daily (QD), 30 mg QD, 15 mg QD and 60 mg QD, with a cycle duration of 28 days, are included in the analysis dataset. […] PF-05199265 has been identified to have an inhibitory and selectivity profile similar to the parent molecule. For each patient, steady-state trough concentrations (Ctrough,ss) were defined as an observed concentration collected at the nominal predose (0 h) time point on Day 1 of Cycle 2 through Cycle 10 with at least 14 days of continuous dacomitinib dosing at one dose level. Ctrough,ss were dose normalized to 45 mg, calculated as Ctrough,ss times 45 mg/dose for the analysis and reporting.
The Ctrough,ss values were used to represent steady-state exposure in patients following administration of 45 mg QD dacomitinib.
The Ctrough,ss collected prior to any reported H2RA use or at least 14 days after the last reported date of H2RA use served as the dacomitinib without H2RA reference. Dacomitinib co-administered with H2RA as the comparator was defined as Ctrough,ss collected after the use of any reported H2RA continuously for at least 3 days. The H2RAs reported in these studies included cimetidine, famotidine, nizatidine and ranitidine.

[7] = parameters: method as in ref 2 = [2]; 2. US Food and Drug Administration (FDA) VIZIMPRO ® (Dacomitinib) Prescribing Information Available online: https://www.accessdata.fda.gov/drugsatfda_docs/label/2018/211288s000lbl.pdf (accessed on 6 N); conditions: with 20 mL locally acting antacid (Maalox Maximum Strength, 400 mg/5 mL); cited from earlier work
[8] = parameters: method as in ref 26 = [26]; 26. US Food and Drug Administration (FDA) VIZIMPRO ® (Dacomitinib) Review Available online: https://www.accessdata.fda.gov/drugsatfda_docs/nda/2018/211288Orig1s000ChemR.pdf (accessed on 6 November 202); conditions: base; cited from earlier work
[9] = co-administration with PPI (rabeprazole 40 mg QD for 7 days)
[10] = single 45 mg dose after 7 days of rabeprazole 40 mg

## COc1cc2ncnc(Nc3ccc(F)c(Cl)c3)c2cc1NC(=O)/C=C/CN1CCCCC1 [dacomitinib]
[1]; pH 1.28
  Solubility: 10000 µg/mL (≈ 21300 µM)
[1]; pH 4.71
  Solubility: 3700 µg/mL (≈ 7870 µM)
[1]; pH 5.09
  Solubility: 340 µg/mL (≈ 723 µM)
[1]; pH 5.17
  Solubility: 230 µg/mL (≈ 489 µM)
[1]; pH 5.3
  Solubility: 160 µg/mL (≈ 340 µM)
[1]; pH 6.13
  Solubility: 6 µg/mL (≈ 12.8 µM)
[1]; pH 6.94
  Solubility: 1 µg/mL (≈ 2.13 µM)
[2]
  K12: 0.033 h⁻¹
  K21: 0.038 h⁻¹
  V2: 19.018 L/kg
  Vc: 21.9 L/kg
[2]; human, plasma, two-compartment model, healthy volunteers
  clearance: 602 mL/min
[3]; cationic
  LogP: 1.8
[3]; neutral
  LogP: 5.3
[4]; co-administration with PPI
  Ratio of AUCinf (predicted-to-observed): 0.857
  Ratio of Cmax (predicted-to-observed): 0.940
[4]; fasted state
  Ratio of AUCinf (predicted-to-observed): 1.00
  Ratio of Cmax (predicted-to-observed): 1.01
[4]; fed state
  Ratio of AUCinf (predicted-to-observed): 1.07
  Ratio of Cmax (predicted-to-observed): 0.952
[5]; [9]
  AUCinf Observed: 715.96 ng·h/mL
  Cmax Observed: 9.125 ng/mL
[5]; fasted state
  AUCinf Observed: 1171 ng·h/mL
  Cmax Observed: 18.41 ng/mL
[5]; fed state
  AUCinf Observed: 1163 ng·h/mL
  Cmax Observed: 21.35 ng/mL
[5]; co-administration with multiple doses of rabeprazole (a PPI)
  decrease of AUC: 39%
[5]; [10]
  reduction of AUC0-96: 39%
  reduction of Cmax: 51%
[6]
  Ctrough,ss Geometric Mean (Geometric CV%), Test: 53.2 ng/mL
  Ctrough,ss Geometric Mean (Geometric CV%), Reference: 57.56 ng/mL
[6]; listed as Dacomitinib
  Ctrough,ss Geometric Mean (Geometric CV%), Test: 53.2 (18.7) ng/mL
  Ctrough,ss Geometric Mean (Geometric CV%), Reference: 57.56 (8.4) ng/mL
[6]; with H2RA vs without H2RA, adjusted, linear mixed effects model
  Ctrough,ss Geometric Mean Ratio test/reference (90% CI): 85.88 (72.9, 101.11) %
[7]
  changes in dacomitinib concentrations: did not cause clinically relevant changes
[8]
  pKa: 5.03 (base)
